Source: US20060154243A1 (priority 2003, published 2006)

Tests used:
[1] = test system: serum 37 (individual 37); type: binding, human
[2] = test system: serum 2 (individual 2); type: binding, human
[3] = test system: control serum Blood-bank (commercial negative donor pooled serum); type: binding, human
[4] = test system: sera SARS-green, SARS-yellow, 1a, 1b, 2, 6, 37, 62 and London; type: binding, human
[5] = test system: serum 1a (individual 1, early serum); type: binding, human
[6] = test system: serum SARS-green; type: binding, human
[7] = test system: serum 6 (individual 6); type: binding, human
[8] = test system: control serum LUMC (pooled serum of ten healthy hospital workers); type: binding, human
[9] = test system: serum 1b (individual 1, late serum); type: binding, human
[10] = test system: serum SARS-yellow; type: binding, human
[11] = test system: serum London; type: binding, human
[12] = test system: serum 62 (individual 62); type: binding, human
[13] = test system: rabbit serum obtained by immunizing with SARS-CoV strain Frankfurt 1; type: binding

Row | Sequence | Binding of serum 37 to linear peptides of Orf14 of SARS-CoV TOR2 [1] | Binding of serum 2 to linear peptides of Orf14 of SARS-CoV TOR2 [2] | Control Serum Blood-Bank Looped peptides [3] | Control serum Blood-bank linear peptides [3] | Recognition of the peptide by sera of individuals infected by SARS-CoV, form recognized [4] | Binding of serum 1a to linear peptides of Orf14 of SARS-CoV TOR2 [5] | Binding of serum SARS-green to linear peptides of Orf14 of SARS-CoV TOR2 [6] | Binding of serum 6 to linear peptides of Orf14 of SARS-CoV TOR2 [7] | Control serum LUMC linear peptides [8] | Control serum LUMC looped peptides [8] | Binding of serum 1b to linear peptides of Orf14 of SARS-CoV TOR2 [9] | Binding of serum SARS-yellow to linear peptides of Orf14 of SARS-CoV TOR2 [10] | Binding of serum London to linear peptides of Orf14 of SARS-CoV TOR2 [11] | Binding of serum 62 to linear peptides of Orf14 of SARS-CoV TOR2 [12] | Recognition by the rabbit serum [13]
1 | CQKASTQREAEAAVK | 0.3 | 0.3 | 0.7 | 0.2 | recognized in looped form | 0.3 | 0.0 | 0.2 | 0.2 | 0.5 | 0.2 | 0.1 | 0.2 | 0.2 | –
2 | QHCQKASTQREAEAA | 0.5 | 0.6 | 1.1 | 0.4 | recognized in looped form | 0.4 | 0.3 | 0.3 | 0.4 | 1.2 | 0.4 | 0.3 | 0.5 | 0.4 | –
3 | KASTQREAEAAVKPL | 0.3 | 0.3 | 0.6 | 0.3 | recognized in looped form | 0.3 | 0.1 | 0.3 | 0.3 | 0.6 | 0.3 | 0.1 | 0.2 | 0.2 | –
4 | KEQHCQKASTQREAE | 0.4 | 0.4 | 0.9 | 0.3 | recognized in looped form | 0.4 | 0.1 | 0.3 | 0.3 | 0.8 | 0.3 | 0.2 | 0.3 | 0.2 | –
5 | NFLKEQHCQKASTQR | 0.5 | 0.4 | 0.6 | 0.5 | recognized in looped form | 0.4 | 0.3 | 0.4 | 0.7 | 0.7 | 0.3 | 0.3 | 0.4 | 0.3 | –
6 | CYNFLKEQHCQKAST | 0.6 | 0.5 | 0.6 | 0.4 | recognized in looped form | 0.5 | 0.4 | 0.5 | 0.3 | 0.5 | 0.3 | 0.1 | 0.7 | 0.4 | –
7 | QKASTQREAEAAVKP | 0.4 | 0.4 | 0.7 | 0.3 | recognized in looped form | 0.4 | 0.1 | 0.3 | 0.3 | 0.8 | 0.3 | 0.1 | 0.3 | 0.3 | –
8 | ASTQREAEAAVKPLL | 0.5 | 0.4 | 0.9 | 0.5 | recognized in looped form | 0.4 | 0.4 | 0.5 | 0.4 | 0.8 | 0.3 | 0.4 | 0.4 | 0.4 | –
9 | PPCYNFLKEQHCQKA | 0.3 | 0.1 | 0.8 | 0.2 | recognized in looped form | 0.3 | 0.1 | 0.2 | 0.1 | 0.6 | 0.2 | 0.0 | 0.1 | 0.2 | –
10 | AAVKPLLAPHHVVAV | 0.9 | 1.0 | 0.6 | 1.0 | – | 0.8 | 0.6 | 0.7 | 1.0 | 0.7 | 0.6 | 0.8 | 0.8 | 0.9 | recognized by the rabbit serum
